One data set relates to Wistar rats. The experiment in a line: Antipyretic effect in rats (brewer yeast-induced fever). It counts as in vivo, rat (Wistar). The procedure: The experiments were performed in groups of 10 Wistar rats of both sexes weighing 160-200 g. Fever was induced by 20% brewer yeast suspended in 0.9% saline solution, applied subcutaneously in a volume of 2 ml/rat distributed at various sites of the back. After 18 hours the test compound or the vehicle (control) was administered in volume of 10 ml./kg p.o. During this period the rats were fasted but received drinking water ad libitum. The rectal temperature of the animals was measured with a Thermotest thermometer 2 days before the administration of the test compound and after treatment every 60th minute. Animals with an increase of body temperature less than 0.8° C. were excluded from the experiment.
(§1) The above tests are carried out by standard methods. […] Pharmacodyn. […] A., Risley E. A., Nuss, G. W.: Proc. Soc.

The next data set relates to granulocytes. The data set is described as follows: Measurement of chemiluminescence of granulocytes (PHA-stimulated, luminol). The data set is classed as cell-based, human (healthy volunteers). To be noted: Homo sapiens, 0.25 h, read-out: IC50, chemiluminescence of granulocytes. The procedure: The test-compounds were dissolved in dimethyl-sulfoxide (DMSO) in a concentration of 10^-1 M, dilutions were made in the incubation medium employed. Heparinized blood (10 IU/ml) was taken from healthy volunteers. The blood was diluted with equal wolume of dextran, then the white blood cells were separated by sedimentation. The granulocytes were separated by Uromio gradient. […] The cell suspension was put in dark box for 15 min. Luminol was dissolved in concentrated NH4 OH and diluted in the following solution:
50 ml Tris-Parker medium (containing 1,2 g Tris, pH=7,4)
150 ml Parker tissue culture medium
4 ml glucose 40% w/v in water
The Luminol solution (500 μl) was measured in plastic vials and put in dark (37° C.). The reaction was started by addition of the cells and stimulating agent (Phytohaemaglutinin-PHA-10 μg/ml).
The vials were continuously and gently shaken and the PHA stimulation was measured in every 2,5 min. for 15 min. in a Beckmann LS-100 spectrometer (coincidence switched off). The percentage of the counts measured was calculated in comparison with the solvent treated control cells. At least 5 concentrations of each compound were investigated in at least 3 parallels.

A further data set relates to rats. The data set is described as follows: Analgesic activity "Writhing test" in rats (acetic acid i.p.). To be noted: p.o., 1 hour before acetic acid i.p. The data set is classed as in vivo, rat. As for the experimental part:
Rats weighing 130-170 g were administered intraperitoneally 0.75% (v/v) acetic acid in a volume of 8 ml/kg. Five minutes after treatment with acetic acid the total number of characteristic writhing reactions was counted for 10 minutes and expressed as percentage of the control group.
as §1
On the technique in general: In writhing tests, fewer writhes than in controls are read as antinociception.

Data set [1] can be described thus: Acute toxicity in mice (p.o., 14 days observation). The note with it: mouse, in vivo, po. As for the experimental part: The experiments were performed in CFLP white mice of both sexes of 18-22 g body weight in groups of at least 10 animals. The test compound was applied p.o. dissolved in a solution containing 0.2% Tween-80 in distilled water in a volume of 20-30 ml/kg. The observation period after treatment lasted for 14 days. Statistical evaluation was carried out as described by Litchfield-Wilcoxon's method.
The above tests are carried out by standard methods. Reference is made to the following citations: Litchfield, J. T., Wilcoxon, F.: J. Pharmacol. Exp. Ther., 96, 99-113 (1949); Newbould, B. B.: Brit. J. Pharmacol. 35, 487 (1969); Shay, H., Kemarov, S. A., Fels, S. S., Meranze, D., Gruenstein, M., Siplet, H.: Gastroenterology 5, 45 (1945); Stickney, J. C., Northup, D. W., Van Liere, E. J.: Arch. int. Pharmacodyn. 147, 113 (1964); Winter, C. A., Risley E. A., Nuss, G. W.: Proc. Soc. Exp. Biol. Med. 111, 544-547 (1962).

The mark [2] stands for this setting: PHA 10 μg/ml stimulation, luminol 32 μM, 37° C., 15 min.

The structures appear in SMILES notation. Where two headings read alike, the source gives them in different places.

In the data set with Wistar rats (200 mg/kg p.o.), `CC(=O)Oc1ccccc1C(=O)O` [Acetylsalicylic acid, reference compound] yielded a Maximal temperature decrease of 1.0 °C.
Take `COc1ccc(Cc2cnc(N)nc2N)cc1` [Example 1, 2,4-Diamino-5-(4-methoxy-benzyl)-pyrimidine]: the IC50 in the data set on granulocytes (setting [2]) is approximately 100 µM. Also, the “Analgesic effect on rats, Therapeutical Index” value in the data set on rats is recorded as “about 8.1”. This compound registered an LD50 at 336 h in data set [1] of approximately 350 mg/kg. In the data set on Wistar rats (200 mg/kg p.o.), this compound had a Maximal temperature decrease of 0.9 °C.
Take `COc1cccc(Cc2cnc(N)nc2N)c1` [Example 2, 2,4-Diamino-5-(3-methoxy-benzyl)-pyrimidine]: in the data set on granulocytes (setting [2]), the IC50 is approximately 100 µM. In addition, in the data set on rats, the “Analgesic effect on rats, Therapeutical Index” value is “about 5.9”. The compound also showed an LD50 at 336 h in data set [1] of approximately 410 mg/kg.
For the compound `COc1cc(Cc2cnc(N)nc2N)cc(OC)c1` [Example 3, 2,4-Diamino-5-(3,5-dimethoxy-benzyl)-pyrimidine], the “Analgesic effect on rats, Therapeutical Index” value in the data set with rats is given as “about 8.0”. The LD50 at 336 h in data set [1] is approximately 800 mg/kg.
The corresponding values for `COc1ccc(Cc2cnc(N)nc2N)c(OC)c1` [Example 4, 2,4-Diamino-5-(2,4-dimethoxy-benzyl)-pyrimidine] are “about 33.3” and approximately 2000 mg/kg.
The like results for `COc1cccc(Cc2cnc(N)nc2N)c1OC` [Example 5, 2,4-Diamino-5-(2,3-dimethoxy-benzyl)-pyrimidine] were, in that order, “about 5.0” and approximately 500 mg/kg.
`Nc1ncc(Cc2ccc3c(c2)OCO3)c(N)n1` [Example 6, 2,4-Diamino-5-(3,4-methylenedioxy-benzyl)-pyrimidine]: the “Analgesic effect on rats, Therapeutical Index” value with rats was “about 57.7”. Also, the LD50 at 336 h in data set [1] was approximately 750 mg/kg. The same compound registered a Maximal temperature decrease in the data set on Wistar rats (100 mg/kg p.o.) of 1.0 °C.
With `CCOc1ccc(Cc2cnc(N)nc2N)cc1OC` [Example 7, 2,4-Diamino-5-(3-methoxy-4-ethoxy-benzyl)-pyrimidine], in the data set with granulocytes (setting [2]), the IC50 is approximately 1 µM. Moreover, the “Analgesic effect on rats, Therapeutical Index” value in the data set with rats was “about 7.6”. Moreover, the LD50 at 336 h in data set [1] was approximately 350 mg/kg. The compound also came in with a Maximal temperature decrease in the data set with Wistar rats (100 mg/kg p.o.) of 0.7 °C.
As for `C=CCOc1ccc(Cc2cnc(N)nc2N)cc1OC.Cl` [Example 8, 2,4-Diamino-5-(3-methoxy-4-allyloxy-benzyl)-pyrimidine-hydrochloride], the IC50 with granulocytes (setting [2]) is approximately 1 µM. Further, in the data set on rats, the “Analgesic effect on rats, Therapeutical Index” value is “about 42.9”. This compound also registered an LD50 at 336 h in data set [1] of approximately 1500 mg/kg. The Maximal temperature decrease in the data set on Wistar rats (100 mg/kg p.o.) turned out to be 0.8 °C.
`CCCCOc1ccc(Cc2cnc(N)nc2N)cc1OC` [Example 9, 2,4-Diamino-5-(3-methoxy-4-n-butoxy-benzyl)-pyrimidine]: the IC50 in the data set on granulocytes (setting [2]) is approximately 1 µM. The “Analgesic effect on rats, Therapeutical Index” value in the data set on rats is more than 125.0. The same compound returned an LD50 at 336 h in data set [1] of more than 2000 mg/kg.
As to `COCCOc1ccc(Cc2cnc(N)nc2N)cc1OC` [Example 10, 2,4-Diamino-5-(3-methoxy-4-methoxyethoxy-benzyl)-pyrimidine], the “Analgesic effect on rats, Therapeutical Index” value with rats is reported as less than 14.3. The compound also registered an LD50 at 336 h in data set [1] of less than 500 mg/kg.
The corresponding values for `COc1cc(Cc2cnc(N)nc2N)ccc1OCc1ccccc1` [Example 11, 2,4-Diamino-5-(3-methoxy-4-benzyloxy-benzyl)-pyrimidine] are more than 37.0 and more than 2000 mg/kg.
With `Br.COc1cc(Cc2cnc(N)nc2N)ccc1O` [Example 12, 2,4-Diamino-5-(3-methoxy-4-hydroxy-benzyl)-pyrimidine-hydrobromide], in the data set with rats, the “Analgesic effect on rats, Therapeutical Index” value was more than 40.0. In data set [1], this compound yielded an LD50 at 336 h of more than 2000 mg/kg.
Regarding `COc1ccc2c(c1)c(CC(=O)O)c(C)n2C(=O)c1ccc(Cl)cc1` [Indomethacin, 1-(p-chloro-benzoyl)-5-methoxy-2-methyl-1H-indole-3-acetic acid, reference compound], the IC50 with granulocytes was 100 µM. In addition, the “Analgesic effect on rats, Therapeutical Index” value with rats came to 4.8. Further, the LD50 at 336 h in data set [1] came to 22.5 mg/kg.
As for `CCCCC1C(=O)N(c2ccccc2)N(c2ccccc2)C1=O` [Phenylbutazone, 3,5-dioxo-1,2-diphenyl-4-(n-butyl)-pyrazolidine, reference compound], the IC50 in the data set with granulocytes (setting [2]) was 100 µM.
The same measure, in the same setting: to `CN1C(C(=O)Nc2ccccn2)=C(O)c2ccccc2S1(=O)=O` [Piroxicam, 4-hydroxy-2-methyl-N-2-pyridyl-2H-1,2-benzothiazine-3-carboxamide-1,1-dioxide, reference compound] belongs 100 µM.

Usually IC50 stands for the midpoint of a concentration-inhibition curve. In general, LD50 refers to the dose expected to kill half of the subjects tested. Read a low LD50 as greater toxicity.

The values are drawn from patent US4883798A, “Pharmaceutical compositions” (EGIS Gyogyszergyar, priority 1987, dated 1989).
